Patent publication US20250206758A1, “SUBSTITUTED BRIDGED RING INHIBITOR, PREPARATION METHOD THEREFOR AND APPLICATION THEREOF” (SUZHOU ZELGEN BIOPHARMACEUTICALS CO., LTD., priority 2022, published 2025)

Key:
[1] = test system: ERK phosphorylation in KRAS^G12D mutant cells (AGS); assay: AGS ERK phosphorylation inhibition experiment; format: cell-based; conditions: 1 hour compound, hEGF 10 minutes
Description: (§1) KRAS^G12D mutant cells (such as GP2D, AGS, etc.) were seeded in a 384-well plate and cultured overnight in a 37° C., 5% CO2 incubator.
(§2) 200 nL of diluted compound was added with Echo 500 to a final DMSO concentration of 0.5%, and cultured in a 37° C., 5% CO2 incubator for 1 hour. Then hEGF was added for acting for 10 minutes.
(§3) The culture medium was discarded, and then cell fixative was added to fix the cells.
(§4) The cells were washed once with PBS, and then incubated with cold 100% methanol.
(§5) Methanol was removed and the cells were washed with PBS.
(§6) PBS was removed, and each well was added with Li-Cor blocking buffer, and blocked at room temperature for 1 hr.
(§7) The blocking solution was removed, and primary antibody mixture was added to each well, and incubated at […] 4° C. overnight.
(§8) The primary antibody mixture was removed, and the cells were washed by adding PBST for 3 times.
(§9) Secondary antibody mixture was added and incubated at room temperature in the dark for 45 min.
(§10) The secondary antibody mixture was removed, and the cells were washed by adding PBST for 3 times. Finally, PBST was suctioned out, and the plate was centrifuged upside down at 1000 rpm for 1 min.
(§11) The plate was read by Odyssey CLx.

[2] = test system: ERK phosphorylation in KRAS^G12D mutant cells (GP2D); assay: GP2D ERK phosphorylation inhibition experiment; format: cell-based; conditions: 1 hour compound, hEGF 10 minutes
Description: as §1, §2, §3, §4, §5, §6, §7, §8, §9, §10, §11

GP2D = assay: Cell proliferation inhibition, GP2D (CellTiter-Glo 3D, 7 days); format: cell-based; conditions: 168 h
Method in brief: (§12)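 Cells exposed to compound (final DMSO 0.5%) in duplicate for 7 days at 37 °C, 5% CO2, then CellTiter-Glo 3D added with 20 min shaking and 2 h dark incubation before luminescence. Inhibition normalized to medium and blank controls; IC50, minimum and maximum inhibition from curve fits.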

AsPC-1 = assay: Cell proliferation inhibition, AsPC-1 (CellTiter-Glo 3D, 7 days); format: cell-based; conditions: Homo sapiens, ASPC1, 168 h; AsPC-1, 7 days
Method in brief: as §12

AGS = assay: Cell proliferation inhibition, AGS (CellTiter-Glo 3D, 7 days); format: cell-based; conditions: Homo sapiens, 168 h
Description: • (a) Resuscitating cells in T75 cell culture flask: • (b) When the cell confluence reaches 80-90%, subculturing the cells.
The diluted test compound was added to a 384-well cell culture plate with a nanoliter pipetting system, and duplicate wells were set up. An equal volume of culture medium was added to the positive control group; and an equal volume of DMSO was added to the negative control group, then centrifugation was conducted at 1000 rpm for 1 min at room temperature.
Cells were inoculated into a) 384-well culture plate, with an equal volume of cells added to the negative control group, and only an equal volume of culture medium added to the positive control group. The plate was centrifuged at 1000 rpm for 1 min at room temperature, and the final DMSO concentration of the compound was 0.5% at last. The plate was placed in a 37° C., 5% CO2 constant temperature incubator for 7 days.
20 μL/well of CellTiter-Glo® 3D to b) was added to 384-well cell culture plate, and the plate was shook at 320 rpm for 20 min in the dark, and incubated at room temperature in the dark for 2 hrs.
The luminescence value was read using an Envision multi-functional microplate reader.
The inhibition rate (IR) of the test compound was calculated using the following formula: IR (%)=(1−(RLU compound−RLU blank control)/(RLU meidum control−RLU blank control))*100%. The inhibition rates of different concentrations of compounds were calculated in Excel, and then the inhibition curves were plotted and the related parameters (including the minimum inhibition rate, maximum inhibition rate and IC50) were calculated using GraphPad Prism software.

[3] = Pharmacokinetic test evaluation in mice, oral; conditions: male ICR mice, oral 30 mg/kg, plasma
Description: Male ICR mice, weighing 22-24 g, were fasted overnight and orally administered with 30 mg/kg of a solution of the compound of the present invention or the control compound [10% DMSO+60% PEG400+30% aqueous solution]. Blood was collected at 0.25, 0.5, 1.0, 2.0, 4.0, 6.0, 8.0, 12.0 and 24 h after administration of the compound of the present invention respectively, and the concentration of the compound of the present invention or the control compound in plasma was determined by LC/MS/MS.

## C#Cc1c(F)ccc2cc(O)cc(-c3ncc4c(N5C[C@H]6CC[C@@H](C5)N6)nc(OC[C@@]56CCCN5[C@H](COC)CC6)nc4c3F)c12 [Example 1 Isomer 2B, 4-(4-((1R,5S)-3,8-diazabicyclo[3.2.1]octan-3-yl)-8-fluoro-2-((3S,7aS)-(3-(methoxymethyl)tetrahydro-1H-pyrrolizin-7a(5H)-yl)methoxy)pyridino[4,3-d]pyrimidin-7-yl)-5-ethynyl-6-fluoronaphthalen-2-ol]
[1]; Homo sapiens
  IC50: 139 nM

## C#Cc1c(F)ccc2cc(O)cc(-c3ncc4c(N5C[C@H]6CC[C@@H](C5)N6)nc(OC[C@]56CCCN5[C@@H](COC)CC6)nc4c3F)c12 [Example 1 Isomer 2A, 4-(4-((1R,5S)-3,8-diazabicyclo[3.2.1]octan-3-yl)-8-fluoro-2-((3R,7aR)-(3-(methoxymethyl)tetrahydro-1H-pyrrolizin-7a(5H)-yl)methoxy)pyridino[4,3-d]pyrimidin-7-yl)-5-ethynyl-6-fluoronaphthalen-2-ol]
[1]; Homo sapiens
  IC50: 19 nM

## C#Cc1c(F)ccc2cc(O)cc(-c3ncc4c(N5C[C@H]6CC[C@@H](C5)N6)nc(OCC56CCCN5CC5(C6)CC5(F)F)nc4c3F)c12 (single isomer, unassigned) [Example 16B]
[1]
  IC50: 3.34 nM

## C#Cc1c(F)ccc2cc(O)cc(-c3ncc4c(N5C[C@H]6CC[C@@H](C5)N6)nc(OC[C@@]56CCCN5[C@@H](COC)CC6)nc4c3F)c12 [Example 1 Isomer 1B, 4-(4-((1R,5S)-3,8-diazabicyclo[3.2.1]octan-3-yl)-8-fluoro-2-((3R,7aS)-(3-(methoxymethyl)tetrahydro-1H-pyrrolizin-7a(5H)-yl)methoxy)pyridino[4,3-d]pyrimidin-7-yl)-5-ethynyl-6-fluoronaphthalen-2-ol]
[2]
  IC50: 2.1 nM
[1]; Homo sapiens
  IC50: 3.76 nM

## C#Cc1c(F)ccc2cc(O)cc(-c3ncc4c(N5CC6CCC(C5)N6)nc(OC[C@@]56CCCN5C[C@H](F)C6)nc4c3F)c12 [MRTX1133, reference compound]
GP2D
  IC50: 1.28 nM
AsPC-1
  IC50: 6.77 nM
AGS
  IC50: 5.15 nM
[3]
  AUC0-∞: BLOQ
  AUC(0-t): BLOQ
  Cmax: BLOQ

## C#Cc1c(F)ccc2cc(O)cc(-c3ncc4c(N5C[C@H]6CC[C@@H](C5)N6)nc(OC[C@]56CCCN5[C@H](COC)CC6)nc4c3F)c12 [Example 1 Isomer 1A, 4-(4-((1R,5S)-3,8-diazabicyclo[3.2.1]octan-3-yl)-8-fluoro-2-((3S,7aR)-(3-(methoxymethyl)tetrahydro-1H-pyrrolizin-7a(5H)-yl)methoxy)pyridino[4,3-d]pyrimidin-7-yl)-5-ethynyl-6-fluoronaphthalen-2-ol]
[2]
  IC50: 2.6 nM
[1]; Homo sapiens
  IC50: 9.67 nM
